Results taken from PMC6430017, “Structural and chemical insights into the covalent-allosteric inhibition of the protein kinase Akt” (Chemical Science, 2019).

target: T1, full-length Akt (Akt^wt) (Homo sapiens, UniProt P31749); assay: Kinetic characterization by time-dependent IC50 measurements; assay type: biochemical; conditions: from time-dependent IC50
T1 sequence (P31749 whole entry): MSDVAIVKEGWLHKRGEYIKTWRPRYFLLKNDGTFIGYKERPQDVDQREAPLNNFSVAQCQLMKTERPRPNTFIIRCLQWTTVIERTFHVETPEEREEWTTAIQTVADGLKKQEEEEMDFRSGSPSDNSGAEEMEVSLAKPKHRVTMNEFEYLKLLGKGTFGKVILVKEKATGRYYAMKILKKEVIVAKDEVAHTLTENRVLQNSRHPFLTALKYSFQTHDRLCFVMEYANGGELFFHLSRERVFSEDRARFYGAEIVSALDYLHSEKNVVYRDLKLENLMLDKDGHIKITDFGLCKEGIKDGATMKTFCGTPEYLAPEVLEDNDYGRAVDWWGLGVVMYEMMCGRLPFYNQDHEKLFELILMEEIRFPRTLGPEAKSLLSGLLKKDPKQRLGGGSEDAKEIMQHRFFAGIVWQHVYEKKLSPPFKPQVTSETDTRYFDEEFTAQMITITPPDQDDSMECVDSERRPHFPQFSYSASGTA
Method: The biochemical inhibitory activity (IC50) was determined with the HTRF KinEASE assay from Cisbio as
previously described.1 All reagents for HTRF experiments were purchased from Cisbio Bioassays,
France. The measurements were analyzed using the Quattro Software Suite for IC50-determination.
Time-dependent IC50-measurements were performed as described. Briefly, IC50 values were
determined for twelve different incubation times and afterwards plotted versus accordingly. Data was
analyzed according to literature procedure.2

Row | SMILES | Ki [nM] | kinact [s⁻¹] | kinact/KI [M⁻¹ s⁻¹]
1 | CN(C)C/C=C/C(=O)Nc1ccc2[nH]c(=O)n(C3CCN(Cc4ccc(-c5nc6cc[nH]c(=O)c6cc5-c5ccccc5)cc4)CC3)c2c1 [24c] | 33 ± 2.4 | 0.000833 | 25000 ± 5000
2 | C=CC(=O)Nc1ccccc1C(=O)NC1CCN(Cc2ccc(-c3nc4cc[nH]c(=O)c4cc3-c3ccccc3)cc2)CC1 [30a] | 27.2 ± 4.2 | 0.0023 | 85000 ± 18000
3 | C=CC(=O)Nc1ccc(C(=O)NC2CCN(Cc3ccc(-c4nc5cc[nH]c(=O)c5cc4-c4ccccc4)cc3)CC2)cc1 [30c] | 362 ± 74 | 0.0007 | 2000 ± 1000
4 | C=CC(=O)Nc1ccc(C(=O)NC2CCN(Cc3ccc(-c4nc5cc[nH]c(=O)c5cc4-c4ccccc4)cc3)CC2)c(F)c1 [30d] | 98.6 ± 10 | 0.00142 | 14000 ± 2000
5 | C=CC(=O)Nc1cc(Br)cc(C(=O)NC2CCN(Cc3ccc(-c4nc5cc[nH]c(=O)c5cc4-c4ccccc4)cc3)CC2)c1 [30e] | 7.6 ± 1.1 | 0.0013 | 168000 ± 25000
6 | C=CC(=O)Nc1ccc(C(=O)NC2CCN(Cc3ccc(-c4nc5cc[nH]c(=O)c5cc4-c4ccccc4)cc3)CC2)s1 [30f] | 39.3 ± 6.6 | 0.00147 | 38000 ± 7000
7 | C=CC(=O)Nc1cccc(CNC2CCN(Cc3ccc(-c4nc5cc[nH]c(=O)c5cc4-c4ccccc4)cc3)CC2)c1 [compound 32] | 327 ± 27 | 0.00118 | 4000 ± 1000

system: AN3CA; assay: Cell viability assay (CellTiter-Glo); assay type: cell-based; conditions: Homo sapiens, AN3-CA, 120 h; AN3CA (endometrium), day 5; read-out: Cell viability assay EC50
Method: Cell Culture and Viability Assay
(§1) analysis, cells were plated on day 0 into white 384-well cell culture plates (Greiner Bio-One) using a
(§2) Multidrop reagent dispenser (Thermo) at cell numbers that ensure linear and optimal luminescent
(§3) signal intensity (AN3-CA: 800 cells/well; BT-474: 400 cells/well; Dan-G: 400 cells/well; HPAF-II: 400
(§4) cells/well). Then the cells were incubated for 24 h in a humidified atmosphere at 37 °C/5 % CO2. The
(§5) cells were treated with inhibitors in serial dilutions ranging from 30 µM down to 0.1 nM using an Echo
(§6) 520 acoustic liquid handler (Labcyte Inc.). Cell viability was analysed on day 5 using the CellTiter-Glo
(§7) assay (Promega) as per manufacturer’s instructions. Luminescence signal was recorded by an EnVision
(§8) Multilabel 2104 Plate Reader (PerkinElmer) with 500 ms integration time. All data were normalized to
(§9) the plate positive control (30 µM staurosporine) and negative control (DMSO). Finally, the data was
(§10) processed with the Quattro Software Suite using a four parameter logistic model. As a quality control,
(§11) the Z’-factor was calculated from 16 positive and negative control values. Only assay results showing
(§12) a Z’-factor ≥ 0.5 were used for further analysis. All experimental points were measured in duplicates
(§13) for each plate and were replicated in at least three times.

Row | SMILES | EC50 [nM]
8 | C=CC(=O)Nc1ccccc1C(=O)NC1CCN(Cc2ccc(-c3nc4cc[nH]c(=O)c4cc3-c3ccccc3)cc2)CC1 [30a] | 1330 ± 60
9 | C=CC(=O)Nc1ccc(C(=O)NC2CCN(Cc3ccc(-c4nc5cc[nH]c(=O)c5cc4-c4ccccc4)cc3)CC2)cc1 [30c] | 3470 ± 1690
10 | C=CC(=O)Nc1ccc(C(=O)NC2CCN(Cc3ccc(-c4nc5cc[nH]c(=O)c5cc4-c4ccccc4)cc3)CC2)c(F)c1 [30d] | 1310 ± 158
11 | C=CC(=O)Nc1cc(Br)cc(C(=O)NC2CCN(Cc3ccc(-c4nc5cc[nH]c(=O)c5cc4-c4ccccc4)cc3)CC2)c1 [30e] | 568 ± 106
12 | C=CC(=O)Nc1ccc(C(=O)NC2CCN(Cc3ccc(-c4nc5cc[nH]c(=O)c5cc4-c4ccccc4)cc3)CC2)s1 [30f] | 879 ± 223
13 | C=CC(=O)Nc1cccc(CNC2CCN(Cc3ccc(-c4nc5cc[nH]c(=O)c5cc4-c4ccccc4)cc3)CC2)c1 [compound 32] | 3290 ± 298

target: T1, full-length Akt (Akt^wt); assay: HTRF KinEASE activity-based assay, IC50 determination; assay type: biochemical; conditions: not given

Row | SMILES | fold loss in inhibitory activity (IC50) compared to 1 [fold]
14 | CN(C)C/C=C/C(=O)Nc1ccc2[nH]c(=O)n(C3CCN(Cc4ccc(-c5nc6cc[nH]c(=O)c6cc5-c5ccccc5)cc4)CC3)c2c1 [24c] | 20

same assay, conditions: HTRF KinEASE

Row | SMILES | IC50 [nM]
15 | CN(C)C/C=C/C(=O)Nc1ccc2[nH]c(=O)n(C3CCN(Cc4ccc(-c5nc6cc[nH]c(=O)c6cc5-c5ccccc5)cc4)CC3)c2c1 [24c] | 18.1 ± 4.9
16 | C=CC(=O)Nc1ccccc1C(=O)NC1CCN(Cc2ccc(-c3nc4cc[nH]c(=O)c4cc3-c3ccccc3)cc2)CC1 [30a] | 10.8 ± 2.5
17 | C=CC(=O)Nc1ccc(C(=O)NC2CCN(Cc3ccc(-c4nc5cc[nH]c(=O)c5cc4-c4ccccc4)cc3)CC2)cc1 [30c] | 285 ± 65
18 | C=CC(=O)Nc1ccc(C(=O)NC2CCN(Cc3ccc(-c4nc5cc[nH]c(=O)c5cc4-c4ccccc4)cc3)CC2)c(F)c1 [30d] | 52.8 ± 16.3
19 | C=CC(=O)Nc1cc(Br)cc(C(=O)NC2CCN(Cc3ccc(-c4nc5cc[nH]c(=O)c5cc4-c4ccccc4)cc3)CC2)c1 [30e] | 3.7 ± 0.7
20 | C=CC(=O)Nc1ccc(C(=O)NC2CCN(Cc3ccc(-c4nc5cc[nH]c(=O)c5cc4-c4ccccc4)cc3)CC2)s1 [30f] | 14 ± 6.1
21 | C=CC(=O)Nc1cccc(CNC2CCN(Cc3ccc(-c4nc5cc[nH]c(=O)c5cc4-c4ccccc4)cc3)CC2)c1 [compound 32] | 192 ± 45

system: ZR-75-1; assay: Cell viability assay (CellTiter-Glo); assay type: cell-based; conditions: Homo sapiens, 120 h; ZR-75-1 (breast), day 5; read-out: Cell viability assay EC50
Method: Cell Culture and Viability Assay
as §1, §2, §3, §4, §5, §6, §7, §8, §9, §10, §11, §12, §13

Row | SMILES | EC50 [nM]
22 | CN(C)C/C=C/C(=O)Nc1ccc2[nH]c(=O)n(C3CCN(Cc4ccc(-c5nc6cc[nH]c(=O)c6cc5-c5ccccc5)cc4)CC3)c2c1 [24c] | 427 ± 23
23 | C=CC(=O)Nc1ccccc1C(=O)NC1CCN(Cc2ccc(-c3nc4cc[nH]c(=O)c4cc3-c3ccccc3)cc2)CC1 [30a] | 22 ± 7
24 | C=CC(=O)Nc1ccc(C(=O)NC2CCN(Cc3ccc(-c4nc5cc[nH]c(=O)c5cc4-c4ccccc4)cc3)CC2)cc1 [30c] | 151 ± 47
25 | C=CC(=O)Nc1ccc(C(=O)NC2CCN(Cc3ccc(-c4nc5cc[nH]c(=O)c5cc4-c4ccccc4)cc3)CC2)c(F)c1 [30d] | 73 ± 25
26 | C=CC(=O)Nc1cc(Br)cc(C(=O)NC2CCN(Cc3ccc(-c4nc5cc[nH]c(=O)c5cc4-c4ccccc4)cc3)CC2)c1 [30e] | 10 ± 3
27 | C=CC(=O)Nc1ccc(C(=O)NC2CCN(Cc3ccc(-c4nc5cc[nH]c(=O)c5cc4-c4ccccc4)cc3)CC2)s1 [30f] | 33 ± 9
28 | C=CC(=O)Nc1cccc(CNC2CCN(Cc3ccc(-c4nc5cc[nH]c(=O)c5cc4-c4ccccc4)cc3)CC2)c1 [compound 32] | 384 ± 62

system: MCF-7; assay: Cell viability assay (CellTiter-Glo); assay type: cell-based; conditions: Homo sapiens, MCF7, 120 h; MCF-7 (breast), day 5; read-out: Cell viability assay EC50
Method: Cell Culture and Viability Assay
as §1, §2, §3, §4, §5, §6, §7, §8, §9, §10, §11, §12, §13

Row | SMILES | EC50 [nM]
29 | C=CC(=O)Nc1ccccc1C(=O)NC1CCN(Cc2ccc(-c3nc4cc[nH]c(=O)c4cc3-c3ccccc3)cc2)CC1 [30a] | 1020 ± 621
30 | C=CC(=O)Nc1ccc(C(=O)NC2CCN(Cc3ccc(-c4nc5cc[nH]c(=O)c5cc4-c4ccccc4)cc3)CC2)cc1 [30c] | 2840 ± 685
31 | C=CC(=O)Nc1ccc(C(=O)NC2CCN(Cc3ccc(-c4nc5cc[nH]c(=O)c5cc4-c4ccccc4)cc3)CC2)c(F)c1 [30d] | 2440 ± 1020
32 | C=CC(=O)Nc1cc(Br)cc(C(=O)NC2CCN(Cc3ccc(-c4nc5cc[nH]c(=O)c5cc4-c4ccccc4)cc3)CC2)c1 [30e] | 224 ± 88
33 | C=CC(=O)Nc1ccc(C(=O)NC2CCN(Cc3ccc(-c4nc5cc[nH]c(=O)c5cc4-c4ccccc4)cc3)CC2)s1 [30f] | 1190 ± 518
34 | C=CC(=O)Nc1cccc(CNC2CCN(Cc3ccc(-c4nc5cc[nH]c(=O)c5cc4-c4ccccc4)cc3)CC2)c1 [compound 32] | 2200 ± 125

system: T47D; assay: Cell viability assay (CellTiter-Glo); assay type: cell-based; conditions: Homo sapiens, 120 h; T47D (breast), day 5; read-out: Cell viability assay EC50
Method: Cell Culture and Viability Assay
as §1, §2, §3, §4, §5, §6, §7, §8, §9, §10, §11, §12, §13

Row | SMILES | EC50 [nM]
35 | CN(C)C/C=C/C(=O)Nc1ccc2[nH]c(=O)n(C3CCN(Cc4ccc(-c5nc6cc[nH]c(=O)c6cc5-c5ccccc5)cc4)CC3)c2c1 [24c] | 2110 ± 49
36 | C=CC(=O)Nc1ccccc1C(=O)NC1CCN(Cc2ccc(-c3nc4cc[nH]c(=O)c4cc3-c3ccccc3)cc2)CC1 [30a] | 41 ± 19
37 | C=CC(=O)Nc1ccc(C(=O)NC2CCN(Cc3ccc(-c4nc5cc[nH]c(=O)c5cc4-c4ccccc4)cc3)CC2)cc1 [30c] | 1360 ± 454
38 | C=CC(=O)Nc1ccc(C(=O)NC2CCN(Cc3ccc(-c4nc5cc[nH]c(=O)c5cc4-c4ccccc4)cc3)CC2)c(F)c1 [30d] | 546 ± 87
39 | C=CC(=O)Nc1cc(Br)cc(C(=O)NC2CCN(Cc3ccc(-c4nc5cc[nH]c(=O)c5cc4-c4ccccc4)cc3)CC2)c1 [30e] | 179 ± 30
40 | C=CC(=O)Nc1ccc(C(=O)NC2CCN(Cc3ccc(-c4nc5cc[nH]c(=O)c5cc4-c4ccccc4)cc3)CC2)s1 [30f] | 183 ± 52
41 | C=CC(=O)Nc1cccc(CNC2CCN(Cc3ccc(-c4nc5cc[nH]c(=O)c5cc4-c4ccccc4)cc3)CC2)c1 [compound 32] | 1900 ± 578

system: not listed separately; assay: Phase I metabolic stability assay; conditions: human, liver microsomes
Method: For this purpose, we used a microsomal stability assay that is a good predictor for phase I metabolic stability.[50]
Metabolic stability under oxidative conditions was determined by LCMS-based measuring of
degradation of compounds at 3 µM in human and murine liver microsomes over 60 minutes at 37 °C
Calculating the compound half-life t1/2, the in vitro intrinsic clearance CLint is

Row | SMILES | half-life at 1 h, 3 µM [min] | microsomal CLint at 3 µM [µL/min/mg]
42 | C=CC(=O)Nc1cc(Br)cc(C(=O)NC2CCN(Cc3ccc(-c4nc5cc[nH]c(=O)c5cc4-c4ccccc4)cc3)CC2)c1 [30e] | 39 | 12
43 | C=CC(=O)Nc1ccc(C(=O)NC2CCN(Cc3ccc(-c4nc5cc[nH]c(=O)c5cc4-c4ccccc4)cc3)CC2)s1 [30f] | 39 | 12

system: BT-474; assay: Cell viability assay (CellTiter-Glo); assay type: cell-based; conditions: Homo sapiens, 120 h; BT-474 (breast), day 5; read-out: Cell viability assay EC50
Method: Cell Culture and Viability Assay
as §1, §2, §3, §4, §5, §6, §7, §8, §9, §10, §11, §12, §13

Row | SMILES | EC50 [nM]
44 | C=CC(=O)Nc1ccccc1C(=O)NC1CCN(Cc2ccc(-c3nc4cc[nH]c(=O)c4cc3-c3ccccc3)cc2)CC1 [30a] | 2270 ± 700
45 | C=CC(=O)Nc1ccc(C(=O)NC2CCN(Cc3ccc(-c4nc5cc[nH]c(=O)c5cc4-c4ccccc4)cc3)CC2)cc1 [30c] | 5210 ± 1890
46 | C=CC(=O)Nc1ccc(C(=O)NC2CCN(Cc3ccc(-c4nc5cc[nH]c(=O)c5cc4-c4ccccc4)cc3)CC2)c(F)c1 [30d] | 1960 ± 391
47 | C=CC(=O)Nc1cc(Br)cc(C(=O)NC2CCN(Cc3ccc(-c4nc5cc[nH]c(=O)c5cc4-c4ccccc4)cc3)CC2)c1 [30e] | 621 ± 85
48 | C=CC(=O)Nc1ccc(C(=O)NC2CCN(Cc3ccc(-c4nc5cc[nH]c(=O)c5cc4-c4ccccc4)cc3)CC2)s1 [30f] | 1100 ± 212
49 | C=CC(=O)Nc1cccc(CNC2CCN(Cc3ccc(-c4nc5cc[nH]c(=O)c5cc4-c4ccccc4)cc3)CC2)c1 [compound 32] | 4020 ± 912

system: KU-19-19; assay: Cell viability assay (CellTiter-Glo); assay type: cell-based; conditions: Homo sapiens, 120 h; KU-19-19 (bladder), day 5; read-out: Cell viability assay EC50
Method: Cell Culture and Viability Assay
as §1, §2, §3, §4, §5, §6, §7, §8, §9, §10, §11, §12, §13

Row | SMILES | EC50 [nM]
50 | CN(C)C/C=C/C(=O)Nc1ccc2[nH]c(=O)n(C3CCN(Cc4ccc(-c5nc6cc[nH]c(=O)c6cc5-c5ccccc5)cc4)CC3)c2c1 [24c] | > 30000
51 | C=CC(=O)Nc1ccccc1C(=O)NC1CCN(Cc2ccc(-c3nc4cc[nH]c(=O)c4cc3-c3ccccc3)cc2)CC1 [30a] | 5540 ± 1510
52 | C=CC(=O)Nc1ccc(C(=O)NC2CCN(Cc3ccc(-c4nc5cc[nH]c(=O)c5cc4-c4ccccc4)cc3)CC2)c(F)c1 [30d] | 6070 ± 1100
53 | C=CC(=O)Nc1cc(Br)cc(C(=O)NC2CCN(Cc3ccc(-c4nc5cc[nH]c(=O)c5cc4-c4ccccc4)cc3)CC2)c1 [30e] | 6440 ± 1240
54 | C=CC(=O)Nc1ccc(C(=O)NC2CCN(Cc3ccc(-c4nc5cc[nH]c(=O)c5cc4-c4ccccc4)cc3)CC2)s1 [30f] | 3060 ± 848
55 | C=CC(=O)Nc1cccc(CNC2CCN(Cc3ccc(-c4nc5cc[nH]c(=O)c5cc4-c4ccccc4)cc3)CC2)c1 [compound 32] | 6760 ± 1460
